Assays:
Format in all cases: cell-based
p-mTOR = p-mTOR protein expression in L6 muscle cells (western blotting); settings: 10 μM kirenol, 24 hours, vs 0.01% DMSO control, FIG. 1
Experimental: (§1) L6 myoblasts (American Type Culture Collection, Manassas, Va., USA), which are muscle cells, were incubated in Dulbecco's Modified Eagle's Medium (DMEM; Hyclone) containing 10% fetal bovine serum (FBS; Hyclone, Logan, Utah, USA), 100 U/mL penicillin, and 100 μg/mL streptomycin (Gibco, Grand Island, N.Y., USA). The L6 cells were treated with the Siegesbeckia glabrescens Mak. ethanol extract prepared according to the above Example 1-1, the Siegesbeckia pubescens Mak. ethanol extract prepared according to Example 2-1, or the Siegesbeckia orientalis L. ethanol extract prepared according to Example 3-1, each at a concentration of 10 ppm. Also, L6 cells were treated with 10 μM kirenol prepared according to Example 4. In this case, a group treated with 0.01% DMSO instead of being treated with a sample was prepared as a control group. […]
ECL western blotting detection reagents (Amersham, Tokyo, Japan) were used to color p-mTOR protein bands, and the G:BOX EF imaging system (Syngene, Cambridge, UK) was used to measure the densities of the colored protein bands. In this case, relative densities of protein bands of experimental groups treated with a sample were determined as a percentage (%), with the density of the control protein band being 100%. […]

myogenin = myogenin mRNA expression in TNF-α-treated differentiated L6 cells (RT-PCR); settings: TNF-α 24 hours, kirenol 10, 40 μM, FIG. 4
Experimental: (§2) L6 myoblasts (American Type Culture Collection, Manassas, Va., USA), which are muscle cells, were incubated in DMEM (10% FBS, 100 U/mL penicillin, 100 μg/mL streptomycin). When the cell density reached about 80-85%, the cell culture medium was replaced with a DMEM growth medium supplemented with 2% FBS. The experiment was initiated after 6 days of differentiation. To induce muscle reduction, the differentiated L6 cells were treated with TNF-α for 24 hours and then with the ethanol extract of Siegesbeckia orientalis L. (10, 40 ppm) prepared according to Example 3-1 and kirenol (10, 40 μM) prepared according to Example 4. RT-PCR was carried out to measure mRNA expression levels of myogenin and MyoD, which are muscle differentiation regulatory factors. TRIzol Reagent (Invitrogen, Carlsbad, Calif., USA) was used for harvesting total RNA from the differentiated cells, and the total RNA was reverse transcribed. The RT-PCR analysis was carried out as follows: First, the RNA was reverse transcribed for cDNA synthesis by using a reverse transcriptase. RT-PCR was conducted using specific primers as listed below, and β-actin was used to indicate that a constant amount of mRNA was loaded into each lane.

MyoD = MyoD mRNA expression in TNF-α-treated differentiated L6 cells (RT-PCR); settings: TNF-α 24 hours, kirenol 10, 40 μM, FIG. 4
Experimental: as §2

atrogin-1 = atrogin-1 mRNA expression in differentiated L6 cells (RT-PCR); settings: kirenol 10, 40 μM, FIG. 6
MuRF1 = MuRF1 mRNA expression in differentiated L6 cells (RT-PCR); settings: kirenol 10, 40 μM, FIG. 6
PGC-1α = PGC-1α protein expression in L6 muscle cells (western blotting); settings: 10 μM kirenol, 24 hours, vs 0.01% DMSO control, FIG. 11
Experimental: as §1, with “(myoblast; American” for “(American”, “DMEM (Hyclone)” for “Dulbecco's Modified Eagle's Medium (DMEM; Hyclone)”, “to” for “to the above”, “1-1,” for “1-1, the”, “or” for “or the”, “group. 24 hours later, the L6 cells were dissolved in a RIPA (ELPIS-Biotech, Daejeon, Korea) buffer solution containing a proteinase inhibitor cocktail (Sigma-Aldrich, St. Louis, Mo., USA).” for “group.”
ECL western blotting detection reagents (Amersham, Tokyo, Japan) were used to color PGC-1α protein bands, and the G:BOX EF imaging system (Syngene, Cambridge, UK) was used to measure the densities of the colored protein bands. In this case, relative densities of protein bands of experimental groups treated with a sample were determined as a percentage (%), with the density of the control protein band being 100%. […]

## C[C@@]1(CO)C[C@@H](O)C[C@@]2(C)C3CC[C@](C)([C@@H](O)CO)C=C3CC[C@H]12 (stereo in doubt) [kirenol, (1R,3S,4aS,4bS,7S,10aS)-1,2,3,4,4a,4b,5,6,7,9,10,10a-Dodecahydro-3-hydroxy-7-[(R)-1,2-dihydroxyethyl]-1,4a,7-trimethylphenanthrene-1-methanol]
p-mTOR
  protein expression level of p-mTOR: increased
myogenin
  mRNA expression level of myogenin: increases
MyoD
  mRNA expression level of MyoD: increases
atrogin-1
  mRNA expression level of atrogin-1: reduces
MuRF1
  mRNA expression level of MuRF1: reduces
PGC-1α
  protein expression level of PGC-1α: increased

Source: patent US20170182106A1, “COMPOSITION INCLUDING KIRENOL OR SIEGESBECKIA HERBA EXTRACT FOR MUSCLE FUNCTION IMPROVEMENT OR EXERCISE ABILITY ENHANCEMENT” (University-Industry Foundation, Yonsei University, priority 2014, published 2017)
